Assay results from PMC8204636 (ACS chemical biology, 2020).

Molecular target: Cdk2 (Homo sapiens, UniProt P24941)
Assay: p-Cl-ANS fluorescent binding assay
Conditions: for cooperativity with the allosteric ANS site: based on p-Cl-ANS fluorescent binding studies; for effect on the binding (fluorescence) of p-Cl-ANS: orthosteric ligand titrated into Cdk2 with p-Cl-ANS

Row | cooperativity with the allosteric ANS site | effect on the binding (fluorescence) of p-Cl-ANS | Compound
1 | only weakly cooperative, if at all | little effect | Nc1ncnc2c1ncn2[C@@H]1O[C@H](COP(=O)(O)OP(=O)(O)OP(=O)(O)O)[C@@H](O)[C@H]1O [ATP]
2 | only weakly cooperative, if at all | little effect | Nc1ncnc2c1ncn2[C@@H]1O[C@H](COP(=O)(O)OP(=O)(O)NP(=O)(O)O)[C@@H](O)[C@H]1O [AMP-PNP, adenylyl-imidodiphosphate]
